Data: ChEMBL document CHEMBL1201862, “PubChem BioAssay data set” (2004)
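A five-concentration, 48-hour dose response in 96-well plates underlies each endpoint, interpolated linearly between surrounding concentrations. GI50 is the concentration that inhibits growth by half.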 Active and inactive are the calls of the source. Cut-off read from the data, not from the text of the source: active = GI50 up to about 1.1 µM and inactive = higher.

How the values were obtained:
Test in all cases: inhibition of tumour cell growth, NCI panel, 48 h
HOP-92 = test system: HOP-92
OVCAR-4 = test system: OVCAR-4
LOX IMVI = test system: LOX IMVI
U-251 = test system: U-251
OVCAR-8 = test system: OVCAR-8
UO-31 = test system: UO-31
HT-29 = test system: HT-29
COLO 205 = test system: COLO 205
HOP-62 = test system: HOP-62
T47D = test system: T47D
BT-549 = test system: BT-549
RPMI-8226 = test system: RPMI-8226
NCI-H23 = test system: NCI-H23
SNB-75 = test system: SNB-75
HCT-15 = test system: HCT-15
MOLT-4 = test system: MOLT-4
K562 = test system: K562
HL-60 = test system: HL-60
Malme-3M = test system: Malme-3M

SMILES	GI50 (HOP-92)	GI50 (OVCAR-4)	GI50 (LOX IMVI)	GI50 (U-251)	GI50 (OVCAR-8)	GI50 (UO-31)	GI50 (HT-29)	GI50 (COLO 205)	GI50 (HOP-62)	GI50 (T47D)	GI50 (BT-549)	GI50 (RPMI-8226)	GI50 (NCI-H23)	GI50 (SNB-75)	GI50 (HCT-15)	GI50 (MOLT-4)	GI50 (K562)	GI50 (HL-60)	GI50 (Malme-3M)
Cc1cc2c(C)cc(=O)[nH]c2cc1N	> 100 µM (inactive)	> 100 µM (inactive)	> 100 µM (inactive)	72.9 µM (inactive)	> 100 µM (inactive)	> 100 µM (inactive)	81.1 µM (inactive)	60.1 µM (inactive)	> 100 µM (inactive)	> 100 µM (inactive)	> 100 µM (inactive)	> 100 µM (inactive)	> 100 µM (inactive)	84.3 µM (inactive)	> 100 µM	> 100 µM (inactive)	> 100 µM (inactive)		
CC1(C)N[PH]2(Nc3ccccc3O2)OC1=O		> 100 µM (inactive)	18.3 µM (inactive)	70.1 µM (inactive)	82.8 µM (inactive)	96.4 µM (inactive)	> 100 µM (inactive)	17.8 µM (inactive)	> 100 µM (inactive)	> 100 µM (inactive)	18.6 µM (inactive)	5.32 µM (inactive)	67.9 µM (inactive)	> 100 µM (inactive)	64.9 µM	22.8 µM (inactive)	37.9 µM (inactive)	44.3 µM (inactive)	38.4 µM (inactive)
CC(=O)N1CCN(CCCCN2c3ccccc3Sc3cc(N=[N+]=[N-])ccc32)CC1			14.9 µM (inactive)	14.4 µM (inactive)	15.4 µM (inactive)	11.3 µM (inactive)	13.6 µM (inactive)	14.2 µM (inactive)	14.3 µM (inactive)	3.65 µM (inactive)	17.3 µM (inactive)	10.5 µM (inactive)	15.7 µM (inactive)	13 µM (inactive)	14.9 µM	8.47 µM (inactive)	8.65 µM (inactive)	8.87 µM (inactive)	17.1 µM (inactive)
CCOC(=O)n1[nH]c(=O)n(-c2ccccc2)c1=O		> 100 µM (inactive)	> 100 µM (inactive)	> 100 µM (inactive)	> 100 µM (inactive)	> 100 µM (inactive)	> 100 µM (inactive)	> 100 µM (inactive)	> 100 µM (inactive)	> 100 µM (inactive)	> 100 µM (inactive)	> 100 µM (inactive)	> 100 µM (inactive)	> 100 µM (inactive)	> 100 µM	> 100 µM (inactive)	> 100 µM (inactive)	> 100 µM (inactive)	> 100 µM (inactive)
CC(=O)N1N=C(c2c(O)ccc3ccccc23)CC1c1ccc(Cl)cc1 (stereo unspecified)	10.9 µM (inactive)	19.6 µM (inactive)		21.9 µM (inactive)	26.9 µM (inactive)	19.8 µM (inactive)	24.7 µM (inactive)	19.9 µM (inactive)	16 µM (inactive)	37.5 µM (inactive)	21 µM (inactive)	10.5 µM (inactive)	15.1 µM (inactive)	22 µM (inactive)	28.4 µM	10.9 µM (inactive)	13.1 µM (inactive)		17.5 µM (inactive)
O=C1CC[C@@]23CC(=O)O[C@@H]2CCCC3C1 (stereo partly specified)		> 100 µM (inactive)	> 100 µM (inactive)	> 100 µM (inactive)	> 100 µM (inactive)	> 100 µM (inactive)	> 100 µM (inactive)	> 100 µM (inactive)	> 100 µM (inactive)	> 100 µM (inactive)	> 100 µM (inactive)	> 100 µM (inactive)	> 100 µM (inactive)	> 100 µM (inactive)	> 100 µM	> 100 µM (inactive)	> 100 µM (inactive)	> 100 µM (inactive)	> 100 µM (inactive)
C[N+]1(CCC(=O)c2ccco2)CC2CCC(CC2)C1 (stereo unspecified)	> 100 µM (inactive)	> 100 µM (inactive)	> 100 µM (inactive)	> 100 µM (inactive)	> 100 µM (inactive)	> 100 µM (inactive)	> 100 µM (inactive)	> 100 µM (inactive)		> 100 µM (inactive)	> 100 µM (inactive)	> 100 µM (inactive)	> 100 µM (inactive)	> 100 µM (inactive)	> 100 µM	> 100 µM (inactive)	> 100 µM (inactive)		> 100 µM (inactive)
CCN(C(=O)N[C@@H](CC(C)C)C(=O)NCC(=O)OC)c1ccccc1	> 100 µM (inactive)	> 100 µM (inactive)	44.3 µM (inactive)	> 100 µM (inactive)	> 100 µM (inactive)	> 100 µM (inactive)	> 100 µM (inactive)	> 100 µM (inactive)	> 100 µM (inactive)	> 100 µM (inactive)	> 100 µM (inactive)	> 100 µM (inactive)	> 100 µM (inactive)	72.9 µM (inactive)	> 100 µM	> 100 µM (inactive)	38.4 µM (inactive)		18 µM (inactive)
O=S(=O)(O)c1c(Cl)cc(O)c2ncccc12	> 100 µM (inactive)	> 100 µM (inactive)	> 100 µM (inactive)	> 100 µM (inactive)	> 100 µM (inactive)	> 100 µM (inactive)	> 100 µM (inactive)	> 100 µM (inactive)	> 100 µM (inactive)	> 100 µM (inactive)	> 100 µM (inactive)	> 100 µM (inactive)	> 100 µM (inactive)	> 100 µM (inactive)	> 100 µM	> 100 µM (inactive)	> 100 µM (inactive)		
CNc1ccccc1S(=O)(=O)c1ccccc1[N+](=O)[O-]		27.2 µM (inactive)	53 µM (inactive)	69.7 µM (inactive)	> 10 µM (inactive)	43.6 µM (inactive)	93.8 µM (inactive)	> 100 µM (inactive)	> 100 µM (inactive)	71.1 µM (inactive)	23.6 µM (inactive)	> 100 µM (inactive)	44.6 µM (inactive)	52.4 µM (inactive)	46.3 µM	30.8 µM (inactive)	42.6 µM (inactive)	40 µM (inactive)	99.8 µM (inactive)
CN(C)c1ccc(/C=C2\CCCCCC2=O)cc1					> 100 µM (inactive)	50.6 µM (inactive)	> 100 µM (inactive)	> 100 µM (inactive)	66.7 µM (inactive)	38.5 µM (inactive)	81.5 µM (inactive)	94.4 µM (inactive)		> 100 µM (inactive)		> 100 µM (inactive)	> 100 µM (inactive)	> 100 µM (inactive)	> 100 µM (inactive)
O=C(O)/C=C(/CC(=O)O)C(=O)O		25.8 µM (inactive)	22.7 µM (inactive)	19.4 µM (inactive)	21.6 µM (inactive)	17.2 µM (inactive)	21.8 µM (inactive)	17.6 µM (inactive)	16.7 µM (inactive)	20.2 µM (inactive)	21.1 µM (inactive)	14.9 µM (inactive)	23.2 µM (inactive)	14.1 µM (inactive)	22.7 µM	19.1 µM (inactive)	19.2 µM (inactive)	21 µM (inactive)	18.7 µM (inactive)
